Source: ChEMBL document CHEMBL4130452, “Design of Selective Benzoxazepin PI3Kδ Inhibitors Through Control of Dihedral Angles” (ACS Med Chem Lett, 2017)

Assays:
[1] = target: T1, Phosphatidylinositol 4,5-bisphosphate 3-kinase catalytic subunit delta isoform (Homo sapiens, UniProt O00329); assay: Binding affinity to PI3Kdelta (unknown origin); settings: read-out: Ki(app)
T1 sequence (O00329 whole entry): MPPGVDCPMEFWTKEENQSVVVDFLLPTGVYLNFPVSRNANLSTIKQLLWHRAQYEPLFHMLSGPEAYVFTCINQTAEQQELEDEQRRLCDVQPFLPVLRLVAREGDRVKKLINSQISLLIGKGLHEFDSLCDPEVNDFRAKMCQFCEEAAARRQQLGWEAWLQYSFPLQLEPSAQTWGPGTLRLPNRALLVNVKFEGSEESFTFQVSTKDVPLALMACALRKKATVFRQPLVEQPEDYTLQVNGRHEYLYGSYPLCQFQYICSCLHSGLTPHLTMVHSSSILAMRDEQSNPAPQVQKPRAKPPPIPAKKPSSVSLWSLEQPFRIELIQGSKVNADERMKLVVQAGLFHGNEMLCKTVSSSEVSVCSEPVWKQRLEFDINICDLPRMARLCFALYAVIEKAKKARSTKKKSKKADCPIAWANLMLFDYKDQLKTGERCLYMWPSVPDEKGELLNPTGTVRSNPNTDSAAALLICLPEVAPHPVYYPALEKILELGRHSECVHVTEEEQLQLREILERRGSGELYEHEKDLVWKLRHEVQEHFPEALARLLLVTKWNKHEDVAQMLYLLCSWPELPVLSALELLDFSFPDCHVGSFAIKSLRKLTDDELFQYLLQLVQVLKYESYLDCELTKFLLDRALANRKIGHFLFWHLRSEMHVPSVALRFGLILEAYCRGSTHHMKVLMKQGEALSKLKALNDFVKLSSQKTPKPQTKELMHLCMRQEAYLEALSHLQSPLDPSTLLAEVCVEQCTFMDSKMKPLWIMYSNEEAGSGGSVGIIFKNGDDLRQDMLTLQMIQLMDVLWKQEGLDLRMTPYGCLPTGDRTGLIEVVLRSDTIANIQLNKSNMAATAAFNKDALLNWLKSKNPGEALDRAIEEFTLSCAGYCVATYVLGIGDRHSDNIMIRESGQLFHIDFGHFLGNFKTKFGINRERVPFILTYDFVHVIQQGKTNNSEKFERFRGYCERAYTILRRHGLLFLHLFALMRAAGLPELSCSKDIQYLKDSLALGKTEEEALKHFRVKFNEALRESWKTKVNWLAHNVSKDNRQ

[2] = Stability in human liver microsomes at 1 uM in presence of NADPH by LC-MS/MS analysis; format: ADME, microsome; settings: read-out: Stability
[3] = Apparent permeability from apical to basolateral side in MDCKI cells at 10 uM after 2 hrs; format: ADME, cell-based, Canis lupus familiaris; settings: dog, MDCK
[4] = target: T1, Phosphatidylinositol 4,5-bisphosphate 3-kinase catalytic subunit delta isoform; assay: Inhibition of PI3Kdelta in human whole blood assessed as suppression of CD69 expression

| Ki [1] [nM] | CLhep predicted at 1 µM [2] [mL/min/kg] | Papp A→B at 2 h, 10 µM [3] [×10⁻⁶ cm/s] | IC50 [4] [nM] | SMILES |
| --- | --- | --- | --- | --- |
| 2.5 | 9.7 |  |  | CC(C)n1ncnc1-c1cn2c(n1)-c1cc(CN3CCN(C(C)(C)C)CC3)ccc1OCC2 |
| 1.7 | 14 |  |  | CC(C)n1ncnc1-c1cn2c(n1)-c1cc(C(=O)N3CCN(C(C)(C)C)CC3)ccc1OCC2 |
| 0.78 | 15 | 13.6 | 15 | Cc1nc(-c2cn3c(n2)-c2cc([C@@H](C)N4CCN(C(C)(C)C)CC4)c(F)cc2OCC3)n(C(C)C)n1 |
| 2.4 |  |  |  | Cc1nc(-c2cn3c(n2)-c2cc([C@H](C)N4CCN(C(C)(C)C)CC4)c(F)cc2OCC3)n(C(C)C)n1 |
|  | 8.4 | 14.2 |  | Cc1nc(-c2cn3c(n2)-c2cc([C@@H](C)N4CCN(C(C)(C)C)CC4)c(C)cc2OCC3)n(C(C)C)n1 |
| 1.9 | < 3.9 | 10 | 28 | Cc1nc(-c2cn3c(n2)-c2cc([C@H](C)N4CCN(C(C)(C)C)CC4)ncc2OCC3)n(C(C)C)n1 |
| 2.8 |  |  |  | Cc1nc(-c2cn3c(n2)-c2cc([C@@H](C)N4CCN(C(C)(C)C)CC4)ncc2OCC3)n(C(C)C)n1 |
| 1.2 | 20 |  |  | CC(C)n1ncnc1-c1cn2c(n1)-c1cc(S(=O)(=O)N3CCN(C(C)(C)C)CC3)ccc1OCC2 |
| 20 | 6.8 |  |  | CC(C)n1ncnc1-c1cn2c(n1)-c1cc(CN3CCC(C(C)(C)O)CC3)ccc1OCC2 |
| 12 | 12 |  |  | CC(C)n1ncnc1-c1cn2c(n1)-c1cc([S@+]([O-])C3CCN(C(C)(C)C)CC3)ccc1OCC2 |
| 0.81 | 17 |  |  | CC(C)n1ncnc1-c1cn2c(n1)-c1cc([S@@+]([O-])C3CCN(C(C)(C)C)CC3)ccc1OCC2 |
